# Read-outs that look alike come from different tables or passages of the source.
# Legend:
# hairless guinea pig [1] = conditions: skin sites monitored visually for 30 minutes
# Experimental: (§1) The systems that were applied comprised a coated microprojection array which was adhered to the center of a low density polyethylene (LDPE) 7 cm^2 disc, coated with a propriety adhesive. Two systems were applied to each hairless guinea pig.
# (§2) At the time of application, the skin of the flank of the animal was manually stretched bilaterally (opposing forces applied on both sides of the expected application site). System application was performed with an impact applicator which applied a force of 0.4 J. Following application of the systems, the stretching tension was released.
# (§3) Half of the systems were applied for 5 seconds and then removed. The second half of the systems were applied for 2 minutes and then removed. Therefore there were four test conditions with each condition having been tested with four system.
# Pictures of the application skin sites were taken 2 minutes after removal of the system. The skin sites were monitored visually for 30 minutes for blanching. Bleeding was evaluated visually from the pictures by estimating the percentage of the microprojection puncture sites that were bleeding. Blood flow (mL/min/100 g) was evaluated with a laser Doppler Velocimeter (LDV) at the skin site immediately prior to application of the system and 2 minutes following removal of the system. […]
# hairless guinea pig [2] = conditions: for blood flow at the application site: LDV 2 minutes after removal
# Experimental: The Guinea pig albumin was used as a model drug or vaccine. The Guinea pig albumen and epinephrine were dry coated on the microprojections of a microprojection array. A microprojection array having long microprojections (600 microns) were chosen in order to maximize bleeding so that the efficacy of the vasoconstrictor could be more easily evaluated.
# An aqueous coating solution containing 200 mg/ml of guinea pig albumin and 50 mg/ml of epinephrine bitartrate was prepared. A control solution was prepared which contained only 200 mg/mL guinea pig albumin in water and no vasoconstrictor. The microprojection arrays that were used a penetration angle of 80°. The penetration angle is defined as the angle between the two upper penetration edges of the microprojection. There were 72 microprojections/cm^2 and the overall area of the microprojection array was 2 cm^2.
# One group of arrays were dipped into each solution and the excess was wicked off by briefly contacting the microprojection array with tissue. The microprojection arrays were then allowed to air-dry overnight at room temperature.
# as §1, §2, §3
# Pictures of the application skin sites were taken 2 minutes after removal of the system. The skin sites were monitored visually for 30 minutes for blanching. Bleeding was evaluated visually from the pictures by estimating the percentage of the microprojection puncture sites that were bleeding. Blood flow (mL/min/100 g) was evaluated with a laser Doppler Velocimeter (LDV) at the skin site immediately prior to application of the system and 2 minutes following removal of the system. For each guinea pig, the blood flow measurement taken prior to system application was subtracted from the second measurement (normalized blood flow).
compound,measurement,setting,value
CNC[C@H](O)c1ccc(O)c(O)c1 [epinephrine],time blanching was detectable after removal of the microprojection arrays,hairless guinea pig [1],about 30 minutes
same,percentage of microslits that were bleeding,"hairless guinea pig [2]; 5-second application, 600 micron microprojection array dry coated with guinea pig albumin 200 mg/ml + epinephrine bitartrate 50 mg/ml, pictures 2 minutes after removal",20%
same,normalized blood flow (erythema at the application site),"hairless guinea pig [2]; FIG. 5, baseline blood flow subtracted",minimizes the erythema
same,blood flow at the application site,hairless guinea pig [2]; systems applied for 5 seconds,30 mls/min/100 grams
same,blood flow at the application site,hairless guinea pig [2]; systems applied for 2 minutes,30 mls/min/100 grams
same,percentage of microslits that were bleeding,"hairless guinea pig [2]; two-minute application, compared with 5-second application, same coated array",little change in the data

# — patent US20040115167A1, “Drug delivery device and method having coated microprojections incorporating vasoconstrictors” (priority 2002, published 2004)
